Source: ChEMBL document CHEMBL1156004, “Pyrazolopyrimidines and pyrazolotriazines with potent activity against herpesviruses” (Bioorg Med Chem Lett, 2009)

Assays:
[1] = Antiviral activity against HSV1 SC16 infected in african green monkey Vero cells by hybrid capture method; format: functional, cell-based, Herpes simplex virus (type 1 / strain SC16); settings: Human alphaherpesvirus 1, Vero
[2] = Cytotoxicity against african green monkey Vero cells; format: cell-based; settings: chlorocebus sabaeus
[3] = Half life in Sprague-Dawley rat at 1 mg/kg, iv and po; format: ADME, organism-based; design: dose 1 mg/kg, route oral; settings: in vivo
Rattus norvegicus = test: Volume of distribution in Sprague-Dawley rat at 1 mg/kg, iv and po; format: ADME, organism-based; design: dose 1 mg/kg, route oral; settings: in vivo
[4] = Cmax in Sprague-Dawley rat at 1 mg/kg, iv and po after 30 mins; format: ADME, organism-based; design: dose 1 mg/kg, route oral; settings: in vivo
[5] = Oral bioavailability in Sprague-Dawley rat at 1 mg/kg; format: ADME, organism-based; settings: in vivo

Structure (SMILES)	IC50 [1] [µM]	CC50 [2] [µM]	half-life [3] [h]	Vd (Rattus norvegicus) [L/kg]	Cmax [4] [nM]	bioavailability [5] [%]
Fc1ccc(-c2nn3c(NC4CCCC4)cccc3c2-c2ccnc(NC3CCCC3)n2)cc1	0.26	> 160				
Fc1ccc(-c2nn3c(NC4CCCC4)cc(NC4CCCC4)cc3c2-c2ccnc(NC3CCCC3)n2)cc1	0.24	> 40				
COc1ccc(-c2nn3c(NC4CCCC4)cccc3c2-c2ccnc(NC3CCCC3)n2)cc1	0.22	> 100				
c1cc(NC2CCCC2)n2nc(-c3ccc(OCC4CC4)cc3)c(-c3ccnc(NC4CCCC4)n3)c2c1	0.17	> 40				
Fc1ccc(-c2nn3c(NC4CCCC4)nccc3c2-c2ccnc(NC3CCCC3)n2)cc1	0.17	> 40	2.5	1.2	300	24
Clc1cccc(-c2nn3c(N4CCOCC4)nccc3c2-c2ccnc(NC3CCCC3)n2)c1	0.2	> 40				
c1ccc(-c2nn3c(NC4CCCC4)ccnc3c2-c2ccnc(NC3CCCC3)c2)cc1	0.3	14				
Fc1ccc(-c2nn3c(NC4CCCC4)ccnc3c2-c2ccnc(NC3CCCC3)c2)cc1	1.2	16				
c1cc(-c2c(-c3ccc(OCC4CC4)cc3)nn3c(NC4CCCC4)nccc23)nc(NC2CCCC2)n1	0.69	> 40				
CCCCOc1ccc(-c2nn3c(NC4CCCC4)nccc3c2-c2ccnc(NC3CCCC3)n2)cc1	0.47	> 40				
c1ccc(-c2nn3c(NC4CCCC4)ncnc3c2-c2ccnc(NC3CCCC3)n2)cc1	6.4	> 40				
COc1ccc(-c2nn3c(NC4CCCC4)nccc3c2-c2ccnc(NC3CCCC3)n2)cc1	0.28	> 40				
CC(C)(C)Nc1nccc2c(-c3ccnc(NC4CCCC4)n3)c(-c3ccc(F)cc3)nn12	6.61	> 40				
COCCNc1nccc2c(-c3ccnc(NC4CCCC4)n3)c(-c3cccc(Cl)c3)nn12	0.3	> 40				
Fc1ccc(-c2nn3c(N4CCCC4)nccc3c2-c2ccnc(NC3CCCC3)n2)cc1	1.9	> 40				
CC(C)COc1ccc(-c2nn3c(NC4CCCC4)nccc3c2-c2ccnc(NC3CCCC3)n2)cc1	0.61	> 40				
COc1ccc(-c2nn3c(NC4CCCC4)ccnc3c2-c2ccnc(NC3CCCC3)c2)cc1	0.6	10				
Oc1ccc(-c2nn3c(NC4CCCC4)nccc3c2-c2ccnc(NC3CCCC3)n2)cc1	4	27				
COCCOc1ccc(-c2nn3c(NC4CCCC4)nccc3c2-c2ccnc(NC3CCCC3)n2)cc1	1.12	> 40				
Clc1cccc(-c2nn3c(NC4CCCC4)nccc3c2-c2ccnc(NC3CCCC3)n2)c1	0.46	> 40				
Fc1ccc(-c2nn3c(N4CCCCC4)nccc3c2-c2ccnc(NC3CCCC3)n2)cc1	0.98	> 40				
COc1ccc(-c2nn3c(NC4CCCC4)ccnc3c2-c2ccnc(NC3CCCC3)n2)cc1	2.4	32				
c1ccc(-c2nn3c(NC4CCCC4)nc(NC4CCCC4)nc3c2-c2ccnc(NC3CCCC3)c2)cc1	0.12	> 40				
CCCOc1ccc(-c2nn3c(NC4CCCC4)nccc3c2-c2ccnc(NC3CCCC3)n2)cc1	0.54	> 20				
c1ccc(-c2nn3c(NC4CCCC4)cccc3c2-c2ccnc(NC3CCCC3)n2)cc1	0.62	> 40				
Nc1nc2c(ncn2COCCO)c(=O)[nH]1 [ACYCLOVIR]	0.39	> 200				
